Values quoted from earlier work, collected in patent US11542295B2, “Use of 20-hydroxyecdysone and the derivatives thereof in the treatment of myopathies” (BIOPHYTIS, priority 2017, dated 2023).

Key:
muscles of rats = details: rats in vivo; cited from earlier work
C2C12 mouse myotubes = C2C12 mouse myotubes in vitro; cited from earlier work
young athletes = young athletes (Simakin et al., 1988); cited from earlier work

SMILES: CC(C)(O)CC[C@@H](O)[C@](C)(O)[C@H]1CC[C@@]2(O)C3=CC(=O)[C@@H]4C[C@@H](O)[C@@H](O)C[C@]4(C)[C@H]3CC[C@]12C [20-hydroxyecdysone]
- effects on protein syntheses in muscles (muscles of rats): stimulant effects
- effects on protein syntheses (C2C12 mouse myotubes): stimulant effects
- muscle mass (young athletes): increases
